Reference: patent US20120148547A1, “COMBINATION OF VITAMIN E AND BETA-GLYCOSPHINGOLIPIDS IN COMPOSITIONS AND METHODS FOR PREVENTING AND TREATING HEPATIC DISORDERS” (Hadasit Medical Reasearch Services & Development Ltd., priority 2009, published 2012)

Tests used:
[1] = test system: acetaminophen-induced liver injury; experiment: Acetaminophen-induced liver injury in mice treated with GC and vitamins, serum ALT and AST (Example 2); type: in vivo, Male C57B1/6 mice; settings: 24 hr after acetaminophen; vitamins by gavage, with or without 100 μg GC two hours before acetaminophen
Protocol: Male C57B1/6 mice (11-12 weeks old) were obtained from Harlan Laboratories (Jerusalem, Israel) and maintained in the Animal Core of the Hadassah-Hebrew University Medical School. β-glucosylceramide (GC) was purchased from Avanti Polar Lipids (Alabaster, Ala., USA). […] Acetaminophen Sigma (cat. # A7085), was dissolved in a mixture of 30% Cremophor EL (Sigma, Rehovot, Israel) and ethanol (1:1) in DDW (Di distilled water). Mice were tested for serum Alanine transaminase (ALT) and Aspartate aminotransferase (AST) at 24 hours after acetaminophen administration. Serum AST and ALT levels were measured by an automatic analyzer. Mice of all groups (eight per group) were fasted for eight hours before oral administration of acetaminophen and for additional four hours after administration. […] Animals were sacrificed after 24 hours, and liver damage was assessed in all groups by examining serum levels of ALT, AST, GSH and TNF-α.

hepatic NKT cells = experiment: Flow cytometry of hepatic NKT lymphocytes (CD3+NK1.1+) after acetaminophen; type: in vivo, mice; settings: pretreatment before acetaminophen
Protocol: For intrahepatic lymphocytes, livers were first crushed through a stainless mesh (size 60, Sigma) and cell suspension was placed in a 50-mL tube for 5 min to pellet the cell debris. Ten milliliters of Lymphoprep (Ficoll, Axis-Shield PoC AS, Oslo, Norway) was slowly placed under the same volume of cell suspension in 50-mL tubes. The tubes were then centrifuged at 1800 rpm for 18 min. Cells at the interface were collected and transferred to new tubes, which were then centrifuged at 1800 rpm for 10 min, to obtain a cell pellet depleted of hepatocytes in a final volume of 250 μl. Approximately 1×10^6 cells/mouse liver were recovered.
Flow cytometry was performed following lymphocyte isolation using 1×10^6 lymphocytes in 100 μl PBS. […] Pacigic Blue anti mouse CD4, FITC-anti mouse CD8 subsets were also used ((eBioscience, USA). For intracellular staining we used PE-anti mouse CD25 and PE-Cy7 anti mouse FOXp3 (eBioscience, USA). Cells were incubated for 30 min at 4° C. in the dark, and washed and resuspended in 200 μl PBS. Analytical cell sorting was performed on 1×10^4 cells from each group using a fluorescence-activated cell sorter (FACSTAR plus, Becton Dickinson). Only live cells were counted and unstained cells served as controls for background fluorescence. Gates were set on forward- and side-scatters to exclude dead cells and red blood cells. […]

[2] = test system: acetaminophen-induced liver injury; experiment: Acetaminophen-induced liver injury in mice treated with GC, serum ALT and AST (Example 1); type: in vivo, Male C57B1/6 mice; set-up: ALT levels: unit not given here; settings: for ALT levels: p<0.001; for AST levels: control group A 6634, p<0.04
Protocol: Male C57B1/6 mice (11-12 weeks old) were obtained from Harlan Laboratories (Jerusalem, Israel) and maintained in the Animal Core of the Hadassah-Hebrew University Medical School. β-glucosylceramide (GC) was purchased from Avanti Polar Lipids (Alabaster, Ala., USA). Glycolipids (3.3 mg/ml) were dissolved in a mixture of 30% Cremophor EL (Sigma, Rehovot, Israel) and ethanol (1:1, C:E) in PBS. Acetaminophen Sigma (cat. # A7085), was dissolved in a mixture of 30% Cremophor EL (Sigma, Rehovot, Israel) and ethanol (1:1) in DDW (Di distilled water). […] Serum AST and ALT levels were measured by an automatic analyzer. Beta glycolipides were previously shown by the present inventors as having immunomodulatory effects. […] The inventors therefore next examined whether such effect may also enhance the glutathione system and thereby ameliorate hepatic injury induced by drugs such as acetaminophen. The effect of GC on acetaminophen-induced liver injury was evaluated by examination of liver enzyme (ALT and AST). Three groups of mice, 15 animals per group, were studied. Mice of all groups were fasted for eight hours before oral administration of acetaminophen and for additional four hours after administration. Mice in all groups were administered orally (PO) with 10 mg/330 μl acetaminophen (in C:E gavage administration). In addition, mice were administered with 100 μg β-glucosylceramide (β-GC, in 30 μl of C:E) two hours before administration of acetaminophen (Group B) and every two hours after acetaminophen administration (Group C), Mice in control group A were treated only with oral PBS.

Compound	effect on ALT levels (FIG. 4) [1]	change in hepatic NKT cells (hepatic NKT cells)	ALT levels ([2]; 12 hr after acetaminophen 10 mg PO, 100 μg GC every two hours after acetaminophen (Group C), control group A 505)	ALT levels ([2]; 12 hr after acetaminophen 10 mg PO, 100 μg GC two hours before acetaminophen (Group B), control group A 505)	AST levels ([2]; 24 hr after acetaminophen, GC every two hours after acetaminophen (Group C))	ALT levels ([2]; 24 hr after acetaminophen, GC every two hours after acetaminophen (Group C), control group A 12150)	AST levels ([2]; 24 hr after acetaminophen, GC two hours before acetaminophen (Group B))	ALT levels ([2]; 24 hr after acetaminophen, GC two hours before acetaminophen (Group B), control group A 12150)
O=C1O[C@H]([C@@H](O)CO)C(O)=C1O [vitamin C, L-Ascorbic acid]	negligible effect							
Cc1c(C)c2c(c(C)c1O)CC[C@@](C)(CCC[C@H](C)CCC[C@H](C)CCCC(C)C)O2 [vitamin E, α-Tocopherol]	negligible effect	became significant						
β-glucosylceramide [GC]		small increase	364	332	4029	5034	3650	5222
